From patent publication US12312328B2, “Pyrazoline dihydroquinolones, pharmaceutical compositions, and uses” (Emory University, priority 2013, dated 2025)
Like-named read-outs stand apart in the source and are kept apart here. Each block holds one compound with its values, some of them ahead of it.

Key:
[1] = target: T1, GluN2D-containing receptors (Rattus norvegicus, UniProt P35439+Q62645); experiment: Two-electrode voltage-clamp inhibition of GluN2D-containing NMDA receptors in Xenopus laevis oocytes; type: cell-based; details: GluN2D-containing receptors
T1 construct: expressed in transfected cells; host or cells: Xenopus laevis oocytes
T1 sequence (Q62645 28-1323, other chains not shown): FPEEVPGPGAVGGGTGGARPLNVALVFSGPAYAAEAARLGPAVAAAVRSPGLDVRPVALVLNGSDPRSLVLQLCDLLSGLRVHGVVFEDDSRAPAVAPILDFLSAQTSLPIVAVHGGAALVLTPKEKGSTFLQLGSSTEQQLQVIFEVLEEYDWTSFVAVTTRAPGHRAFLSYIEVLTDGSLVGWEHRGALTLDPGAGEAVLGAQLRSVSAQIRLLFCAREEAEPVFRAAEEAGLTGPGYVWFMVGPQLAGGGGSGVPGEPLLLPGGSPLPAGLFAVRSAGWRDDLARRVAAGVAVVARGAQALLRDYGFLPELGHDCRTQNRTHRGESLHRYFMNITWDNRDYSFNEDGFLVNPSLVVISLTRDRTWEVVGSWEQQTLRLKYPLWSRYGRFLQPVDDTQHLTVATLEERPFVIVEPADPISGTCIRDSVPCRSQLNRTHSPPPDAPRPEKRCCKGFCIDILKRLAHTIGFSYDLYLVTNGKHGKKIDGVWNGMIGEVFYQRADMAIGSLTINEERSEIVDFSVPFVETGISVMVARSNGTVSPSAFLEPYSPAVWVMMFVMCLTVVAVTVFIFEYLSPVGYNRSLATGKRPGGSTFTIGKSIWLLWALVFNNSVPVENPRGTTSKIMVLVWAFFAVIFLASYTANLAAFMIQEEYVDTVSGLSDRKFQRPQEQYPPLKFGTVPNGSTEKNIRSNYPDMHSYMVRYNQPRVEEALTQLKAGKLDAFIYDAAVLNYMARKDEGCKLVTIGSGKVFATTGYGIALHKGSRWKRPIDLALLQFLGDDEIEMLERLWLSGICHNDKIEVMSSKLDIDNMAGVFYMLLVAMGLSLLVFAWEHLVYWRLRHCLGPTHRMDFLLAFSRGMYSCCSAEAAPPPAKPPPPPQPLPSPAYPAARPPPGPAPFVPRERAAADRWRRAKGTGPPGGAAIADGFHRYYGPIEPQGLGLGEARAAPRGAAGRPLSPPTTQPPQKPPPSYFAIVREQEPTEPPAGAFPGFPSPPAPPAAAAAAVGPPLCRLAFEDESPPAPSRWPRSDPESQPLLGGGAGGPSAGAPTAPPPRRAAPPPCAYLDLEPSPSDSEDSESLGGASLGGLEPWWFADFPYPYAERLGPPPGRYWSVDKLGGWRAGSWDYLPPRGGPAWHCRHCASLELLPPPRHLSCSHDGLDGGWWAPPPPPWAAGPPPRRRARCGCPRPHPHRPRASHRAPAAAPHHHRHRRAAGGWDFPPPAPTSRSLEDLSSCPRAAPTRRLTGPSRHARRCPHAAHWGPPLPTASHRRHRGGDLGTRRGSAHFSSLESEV
Protocol: (§1) IC50 values were obtained by fitting the Hill equation to the average composite concentration-effect curves.
(§2) Xenopus laevis oocytes were isolated and maintained as described in Hansen & Traynelis, J Neurosci 2011, 31, 3650-3661. Oocytes were placed in a perfusion chamber with recording solution comprised of (in mM) 90 NaCl, 1 KCl, 0.5 BaCl2, 0.005 EDTA and 10 HEPES, pH adjusted to 7.4 with NaOH at 23° C. The glass electrodes used had tip resistance of 0.5-2.0 MΩ and were filled with 0.3-3.0 M KCl. Compounds were made as 20 mM stock solutions in DMSO and diluted to final concentrations in recording solution (final DMSO was 0.1-0.05% vol/vol). The current recordings were performed using a Warner OC-725B or C amplifier at a holding potential of −40 mV.

[2] = target: T2, GluN2C-containing receptors (Rattus norvegicus, UniProt P35439+Q00961); experiment: Two-electrode voltage-clamp inhibition of GluN2C-containing NMDA receptors in Xenopus laevis oocytes; type: cell-based
T2 construct: expressed in transfected cells; host or cells: Xenopus laevis oocytes
T2 sequence (Q00961 20-1237, other chains not shown): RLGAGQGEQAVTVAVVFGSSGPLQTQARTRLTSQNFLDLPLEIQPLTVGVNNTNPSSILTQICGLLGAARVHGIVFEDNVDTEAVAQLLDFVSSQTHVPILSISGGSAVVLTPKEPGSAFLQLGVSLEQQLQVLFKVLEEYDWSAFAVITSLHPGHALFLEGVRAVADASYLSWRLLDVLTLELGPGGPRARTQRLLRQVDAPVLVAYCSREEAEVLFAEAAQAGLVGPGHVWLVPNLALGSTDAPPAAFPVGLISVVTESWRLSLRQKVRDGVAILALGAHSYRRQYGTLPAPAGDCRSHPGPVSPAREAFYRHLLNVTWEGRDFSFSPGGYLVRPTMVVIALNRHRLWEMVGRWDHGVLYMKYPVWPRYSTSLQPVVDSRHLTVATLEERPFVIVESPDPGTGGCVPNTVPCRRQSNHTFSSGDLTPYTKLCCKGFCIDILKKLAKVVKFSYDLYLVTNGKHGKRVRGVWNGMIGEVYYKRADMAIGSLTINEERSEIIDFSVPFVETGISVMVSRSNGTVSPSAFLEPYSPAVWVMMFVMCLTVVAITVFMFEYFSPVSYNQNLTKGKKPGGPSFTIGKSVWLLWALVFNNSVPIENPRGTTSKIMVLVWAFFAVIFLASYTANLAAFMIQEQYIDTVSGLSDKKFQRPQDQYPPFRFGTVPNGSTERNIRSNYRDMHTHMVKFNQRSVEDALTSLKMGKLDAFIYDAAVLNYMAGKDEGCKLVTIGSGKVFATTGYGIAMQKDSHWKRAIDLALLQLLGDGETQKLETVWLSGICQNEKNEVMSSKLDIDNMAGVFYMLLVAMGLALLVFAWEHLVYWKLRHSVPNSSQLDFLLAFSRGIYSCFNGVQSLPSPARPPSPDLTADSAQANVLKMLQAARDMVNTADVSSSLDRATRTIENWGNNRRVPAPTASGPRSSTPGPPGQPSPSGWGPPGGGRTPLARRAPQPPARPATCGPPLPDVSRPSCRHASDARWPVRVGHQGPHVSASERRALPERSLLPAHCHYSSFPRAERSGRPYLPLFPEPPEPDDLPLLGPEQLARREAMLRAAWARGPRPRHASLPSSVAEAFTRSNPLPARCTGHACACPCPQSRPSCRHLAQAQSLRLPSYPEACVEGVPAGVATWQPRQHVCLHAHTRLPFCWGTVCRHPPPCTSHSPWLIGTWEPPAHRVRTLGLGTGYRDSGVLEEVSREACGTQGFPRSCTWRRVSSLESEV
Protocol: as §1, §2

[3] = target: T3, GluN2D-containing receptors (Rattus norvegicus, UniProt Q62645); experiment: Two-electrode voltage-clamp inhibition of GluN2D-containing NMDA receptors in Xenopus laevis oocytes; type: cell-based
T3 construct: expressed in transfected cells; host or cells: Xenopus laevis oocytes
T3 sequence (Q62645 28-1323, other chains not shown): as the sequence (Q62645 28-1323, other chains not shown) above
Protocol: as §1, §2

[4] = target: T4, GluN2C-containing receptors (Rattus norvegicus, UniProt Q00961); experiment: Two-electrode voltage-clamp inhibition of GluN2C-containing NMDA receptors in Xenopus laevis oocytes; type: cell-based
T4 construct: expressed in transfected cells; host or cells: Xenopus laevis oocytes
T4 sequence (Q00961 20-1237, other chains not shown): as the sequence (Q00961 20-1237, other chains not shown) above
Protocol: as §1, §2

[5] = test system: GluN2C- and GluN2D-containing NMDA receptors; experiment: NMDA receptor inhibition and subunit selectivity, GluN2C/GluN2D not told apart; type: cell-based
Protocol: as §1, §2

[6] = test system: MDR1-MDCK cell monolayers; experiment: MDR1-MDCK permeability assay; type: in vitro ADME; details: for BBB penetration classification: from Papp and efflux ratio in MDR1-MDCK
Protocol: The Papp and efflux ratio were calculated as described in the Methods. […] See Wang et al., International Journal of Pharmaceutics, 2005, 288, 349-359.
Cell monolayers were grown to confluence on collagen-coated, microporous, polycarbonate membranes in 12-well Costar Transwell® plates. The permeability assay buffer was Hanks Balanced Salt Solution containing 10 mM HEPES and 15 mM glucose at pH 7.4. The buffer in the receiver chamber also contained 1% bovine serum albumin. The dosing solution concentration in the assay buffer was 5 μM for each compound tested. The cell monolayers were dosed on the apical side (A-to-B) or basolateral side (B-to-A) and incubated at 37° C. with 5% CO2 in a humidified incubator. Samples were taken from the donor and receiver chambers at 120 minutes. Each determination was performed in duplicate. The co-dosed lucifer yellow flux was also measured for each monolayer to ensure no damage was inflicted to the cell monolayers during the flux period. All samples were assayed by LC-MS/MS using electrospray ionization. The apparent permeability (Papp) and percent recovery were calculated as follows. […] Human Liver Microsomal Stability

Plasma stability, mouse = type: in vitro ADME; details: two-hour time-course
Protocol: (§3) Three analogs, (58) 997-33, (26)997-23 and (64) 997-57 were evaluated for plasma stability as well as aqueous solubility. […] The aqueous solubility of compounds (26)997-23 and (58) 997-33 was evaluated in oocyte recording buffer using nephelometry. […] In order to assess the potential BBB penetration, compounds (26)997-23 and (64)997-57 were selected for evaluation in the MDR1-MDCK permeability assay (FIG. 19). […] The same compounds were also evaluated for metabolic stability using human liver microsomes.

Plasma stability, human = type: in vitro ADME; details: two-hour time-course
Protocol: as §3

Plasma stability, rat = type: in vitro ADME; details: two-hour time-course
Protocol: as §3

[7] = GluN2D-containing receptors, read-out: inhibition IC50 for GluN2D

IC50 [1]: 3600 nM
IC50 [2]: 8500 nM
SMILES: O=C(CC(F)(F)CO)N1N=C(c2c(-c3ccc(Cl)cc3)c3ccccc3[nH]c2=O)C[C@@H]1c1ccc(Cl)cc1 [(R)-4-(4-chlorophenyl)-3-(5-(4-chlorophenyl)-1-(3,3-difluoro-4-hydroxybutanoyl)-4,5-dihydro-1H-pyrazol-3-yl)quinolin-2(1H)-one]

IC50 [1]: 50 nM
IC50 [2]: 390 nM
SMILES: O=C(O)CC(F)(F)C(=O)N1N=C(c2c(-c3ccc(Cl)cc3)c3ccccc3[nH]c2=O)CC1c1ccc(Cl)cc1 (stereo not drawn) [4-(5-(4-chlorophenyl)-3-(4-(4-chlorophenyl)-2-oxo-1,2-dihydroquinolin-3-yl)-4,5-dihydro-1H-pyrazol-1-yl)-3,3-difluoro-4-oxobutanoic acid]

IC50 [3, 7]: 1700 nM
IC50 [4]: 3000 nM
SMILES: O=C(O)CCCN1N=C(c2c(-c3ccc(Cl)cc3)c3ccccc3[nH]c2=O)CC1c1ccc(Cl)cc1 (stereo not drawn) [Compound 997-63, 4-(5-(4-Chlorophenyl)-3-(4-(4-chlorophenyl)-2-oxo-1,2-dihydroquinolin-3-yl)-4,5-dihydro-1H-pyrazol-1-yl)butanoic acid]

IC50 [1]: 600 nM
IC50 [2]: 1400 nM
SMILES: O=C(CC(F)(F)CO)N1N=C(c2c(-c3ccc(Cl)cc3)c3ccccc3[nH]c2=O)C[C@H]1c1ccc(Cl)cc1 [(S)-4-(4-chlorophenyl)-3-(5-(4-chlorophenyl)-1-(3,3-difluoro-4-hydroxybutanoyl)-4,5-dihydro-1H-pyrazol-3-yl)quinolin-2(1H)-one]

IC50 [1]: 500 nM
IC50 [2]: 600 nM
SMILES: O=C(CC(F)(F)C(=O)O)N1N=C(c2c(-c3cccc(F)c3)c3ccccc3[nH]c2=O)CC1c1ccc(Cl)cc1 (stereo not drawn) [4-(5-(4-chlorophenyl)-3-(4-(3-fluorophenyl)-2-oxo-1,2-dihydroquinolin-3-yl)-4,5-dihydro-1H-pyrazol-1-yl)-2,2-difluoro-4-oxobutanoic acid]

potency at GluN2D-containing receptors, in words [3]: submicromolar
SMILES: O=C(O)CCC(=O)N1N=C(c2c(-c3ccc(F)c(F)c3)c3ccccc3[nH]c2=O)CC1c1ccc(Cl)cc1 (stereo not drawn) [Compound 997-42, 4-(5-(4-Chlorophenyl)-3-(4-(3,4-difluorophenyl)-2-oxo-1,2-dihydroquinolin-3-yl)-4,5-dihydro-1H-pyrazol-1-yl)-4-oxobutanoic acid]

IC50 ([3]; subunit inferred, GluN2D by context of b229, read-out: IC50 (potency, FIG. 10)): 32000 nM
SMILES: COC(=O)c1ccc(C2CC(c3c(-c4ccccc4)c4cc(Cl)ccc4[nH]c3=O)=NN2C(=O)CCC(=O)O)cc1 (stereo not drawn) [Compound 997-6, 4-(3-(6-Chloro-2-oxo-4-phenyl-1,2-dihydroquinolin-3-yl)-5-(4-(methoxycarbonyl)phenyl)-4,5-dihydro-1H-pyrazol-1-yl)-4-oxobutanoic acid]

IC50 [1]: 800 nM
IC50 [2]: 1600 nM
SMILES: O=C(CC(F)(F)CO)N1N=C(c2c(-c3ccc(Cl)cc3)c3ccccc3[nH]c2=O)CC1c1ccc(Cl)cc1 (stereo not drawn) [4-(4-chlorophenyl)-3-(5-(4-chlorophenyl)-1-(3,3-difluoro-4-hydroxybutanoyl)-4,5-dihydro-1H-pyrazol-3-yl)quinolin-2(1H)-one]

potency at GluN2D-containing receptors, in words [3]: submicromolar
SMILES: O=C(O)CCC(=O)N1N=C(c2c(-c3ccc(Cl)c(Cl)c3)c3ccccc3[nH]c2=O)CC1c1ccc(Cl)cc1 (stereo not drawn) [Compound 997-41, 4-(5-(4-Chlorophenyl)-3-(4-(3,4-dichlorophenyl)-2-oxo-1,2-dihydroquinolin-3-yl)-4,5-dihydro-1H-pyrazol-1-yl)-4-oxobutanoic acid]

SMILES: O=C(O)CCC(=O)N1N=C(c2c(-c3ccccc3)c3cc(Cl)ccc3[nH]c2=O)CC1c1ccc(C(=O)O)cc1 (stereo not drawn) [Compound 997-5, 4-(1-(3-Carboxypropanoyl)-3-(6-chloro-2-oxo-4-phenyl-1,2-dihydroquinolin-3-yl)-4,5-dihydro-1H-pyrazol-5-yl)benzoic acid]
activity at NMDA receptors, in words [5]: no activity

potency at GluN2D-containing receptors, in words [3]: submicromolar
SMILES: O=C(O)CCC(=O)N1N=C(c2c(-c3cc(F)cc(F)c3)c3ccccc3[nH]c2=O)CC1c1ccc(Cl)cc1 (stereo not drawn) [Compound 997-35, 4-(5-(4-Chlorophenyl)-3-(4-(3,5-difluorophenyl)-2-oxo-1,2-dihydroquinolin-3-yl)-4,5-dihydro-1H-pyrazol-1-yl)-4-oxobutanoic acid]

SMILES: COC(=O)/C=C/C(=O)N1N=C(c2c(-c3ccc(Br)cc3)c3ccccc3[nH]c2=O)CC1c1ccc(Cl)cc1 (stereo not drawn) [Compound 997-31, (E)-Methyl 4-(3-(4-(4-bromophenyl)-2-oxo-1,2-dihydroquinolin-3-yl)-5-(4-chlorophenyl)-4,5-dihydro-1H-pyrazol-1-yl)-4-oxobut-2-enoate]
activity at NMDA receptors, in words [5]: inactive

IC50 [1]: 8100 nM
IC50 [2]: 15000 nM
SMILES: O=C(O)CCC(=O)N1N=C(c2c(-c3ccncc3)c3ccccc3[nH]c2=O)CC1c1ccc(Cl)cc1 (stereo not drawn) [4-(5-(4-chlorophenyl)-3-(2-oxo-4-(pyridin-4-yl)-1,2-dihydroquinolin-3-yl)-4,5-dihydro-1H-pyrazol-1-yl)-4-oxobutanoic acid]

potency at GluN2D-containing receptors, in words [3]: submicromolar
SMILES: O=C(O)CCC(=O)N1N=C(c2c(-c3cc(Cl)cc(Cl)c3)c3ccccc3[nH]c2=O)CC1c1ccc(Cl)cc1 (stereo not drawn) [Compound 997-37]

Papp A-B ([6]; MDR1-MDCK, 5 μM, 120 minutes): 2.46 ×10⁻⁶ cm/s
BBB penetration classification [6]: low BBB potential
plasma stability (Plasma stability, mouse): minimal degradation
plasma stability (Plasma stability, human): minimal degradation
plasma stability (Plasma stability, rat): minimal degradation
SMILES: O=C(CCCO)N1N=C(c2c(-c3ccc(Cl)cc3)c3ccccc3[nH]c2=O)CC1c1ccc(Cl)cc1 (stereo not drawn) [Compound 997-57, 4-(4-Chlorophenyl)-3-(5-(4-chlorophenyl)-1-(4-hydroxybutanoyl)-4,5-dihydro-1H-pyrazol-3-yl)quinolin-2(1H)-one]
selectivity over GluN2A-containing receptors ([5]; activity at GluN2C- and GluN2D-containing receptors versus GluN2A): 90 fold

SMILES: COC(=O)CCC(=O)N1N=C(c2c(-c3ccccc3)c3cc(Cl)ccc3[nH]c2=O)CC1c1ccc(Br)cc1 (stereo not drawn) [Compound 997-11, Methyl 4-(5-(4-bromophenyl)-3-(6-chloro-2-oxo-4-phenyl-1,2-dihydroquinolin-3-yl)-4,5-dihydro-1H-pyrazol-1-yl)-4-oxobutanoate]
activity at NMDA receptors, in words [5]: inactive

IC50 [3, 7]: 4100 nM
SMILES: O=C(O)CCC(=O)N1N=C(c2c(-c3ccccc3)c3cc(Cl)ccc3[nH]c2=O)CC1c1ccc(C(F)(F)F)cc1 (stereo not drawn) [Compound 997-8, 4-(3-(6-Chloro-2-oxo-4-phenyl-1,2-dihydroquinolin-3-yl)-5-(4-(trifluoromethyl)phenyl)-4,5-dihydro-1H-pyrazol-1-yl)-4-oxobutanoic acid]

potency at GluN2D-containing receptors, in words [3]: submicromolar
SMILES: O=C(O)CCC(=O)N1N=C(c2c(-c3ccc(F)c(Cl)c3)c3ccccc3[nH]c2=O)CC1c1ccc(Cl)cc1 (stereo not drawn) [Compound 997-34, 4-(3-(4-(3-Chloro-4-fluorophenyl)-2-oxo-1,2-dihydroquinolin-3-yl)-5-(4-chlorophenyl)-4,5-dihydro-1H-pyrazol-1-yl)-4-oxobutanoic acid]

Papp A-B ([6]; MDR1-MDCK, 5 μM, 120 minutes): 3.88 ×10⁻⁶ cm/s
Papp B-A ([6]; MDR1-MDCK, 5 μM, 120 minutes): 9.52 ×10⁻⁶ cm/s
BBB penetration classification [6]: highly brain penetrable
SMILES: O=C(CCCF)N1N=C(c2c(-c3ccc(Cl)cc3)c3ccccc3[nH]c2=O)CC1c1ccc(Cl)cc1 (stereo not drawn) [Compound 997-64, 4-(4-Chlorophenyl)-3-(5-(4-chlorophenyl)-1-(4-fluorobutanoyl)-4,5-dihydro-1H-pyrazol-3-yl)quinolin-2(1H)-one]
